# How the values were obtained:
# Type in all cases: cell-based
# [1] = test system: RAW264.7 macrophage cells; test: Optically activated migration of RAW264.7 cells; conditions: 10 μM
# Procedure: FIGS. 13A-13B: The in vitro effect of TPH104 on the migratory and invasive properties of MDA-MB231 TNBC cells using the wound healing assay. […] Control cells were incubated with 11-cis retinal (50 μM) for 5 minutes in the dark. A confined optical input of 445 nm was placed in-front of cells using a user-defined region of interest (ROI) and optically activated (OA) continuously in the direction of cell migration pathway for 20 minutes (OA=blue box). Cells were incubated with 10 μM of TPH104 for 30 minutes, followed by incubation with 11-cis retinal (50 μM) for 5 minutes in the dark. Scale=5 μm.
# To further confirm the anti-migratory effect of TPH104, RAW264.7 macrophage cells were incubated with 10 μM TPH104 and its effect on Gai-coupled-GPCR activation was determined.
# BT-20 cells = test: Hoechst 33258 assay and live cell morphology, BT-20
# Procedure: FIGS. 8A-8B: Representative images of morphological changes in BT-20 TNBC cells incubated with 0, 1, or 3 μM of TPH104 (FIG. 8A). The images were taken using an incuCyte live cell imaging instrument.
# To detect DNA fragmentation following apoptotic cell death, the Hoechst 33258 assay was performed. Briefly, TNBC cells were seeded in a 6-well plate at a density of 10,000 cells/well over 18-mm cover slips and incubated for 24 h. Following incubation, TPH104 (1, 2, or 5 μM), or vehicle were added for an additional 12 h. Subsequently, Hoechst 33258 (Sigma Aldrich, USA) was added to the cells at a concentration of 0.5 mg/mL and incubated for 30 minutes at 37° C. The cells were then washed 3× with phosphate buffered saline (PBS). Subsequently, the cover slips were mounted on a microscope glass/slide and allowed to dry for at least 2 h. Stained cells from each cover slip were captured from randomly selected fields under a fluorescent microscope (EVOS-FLC cell imaging system, Thermofisher scientific) to qualitatively determine the proportion of viable and apoptotic cells based on their relative fluorescence and nuclear fragmentation as previously described.
# [2] = test system: MDA-MB468 (TNBC cell line); test: MTT cell viability assay, MDA-MB468; conditions: Homo sapiens, MDA-MB-468, 72 h, read-out: IC50 ± SD, MDA-MB468
# Procedure: (§1) The following cancer and non-cancer cell lines were used in the initial cytotoxicity screening of the TPH104 compounds: triple negative breast cancer (TNBC): MDA-MB468, MDA-MB 231, and BT-20; non-TNBC: MCF-7 and ZR-75-1; ovarian: Ov2008; prostate: DU145; colon: HCT-116, S1, and LOVO; lung: H460; normal kidney: HEK-293; normal breast: HMEC; and normal colon: CRL-1459. All cells were cultured in Dulbecco's modified Eagle medium (DMEM), supplemented with 10% fetal bovine serum (FBS), and 1% penicillin/streptomycin (P/S). Cells were allowed to grow as adherent monolayers in T25 flasks in a humidified incubator with 5% CO2 at 37° C. for a period of 24 h, unless otherwise specified for certain experiments.
# (§2) The MTT assay was used to determine the cytotoxicity of all of the compounds. Briefly, in a 96-well flat-bottom cell culture plate, the cells were seeded at a density between 3-5×10^3 cells/well (180 μl in each well) and incubated for 24 h (a hemocytometer was used for cell counting). The next day, the cells were incubated with different concentrations of the nine compounds (0, 0.1, 0.3, 1, 3, 10, 30, and 100 μM) for 72 h. After 72 h, 20 μl of 5 mg/ml of 3-(4,5-dimethylthiazol-2-yl)-2,5-diphenyltetrazolium bromide (MTT) was added to the plate and incubated with the cells for 3 h at 37° C. In this experiment, the living cells will reduce the soluble MTT dye to non-soluble purple formazan crystals. Following incubation, the media containing MTT removed via suction and 100 μL of 100% dimethyl sulfoxide (DMSO) was added to dissolve the formazan crystals. Subsequently, the plate was shaken for 2 minutes and the absorbance was measured at a wavelength of 570 nm using a SpectraMax iD3 Multi-Mode Microplate Reader (Molecular Devices, Sunnyvale, CA). The IC50 values of each compound were calculated and used to determine the selectivity ratio (IC50 in normal cells/IC50 in cancer cells) of each compound as previously described. Based on the results obtained from these experiments, the compound TPH104, which had the lowest IC50 value, was selected for further experiments.
# [3] = biological target: T1, P-gp (ABCB1), DU145TXR prostate cancer cells (Homo sapiens, UniProt P08183); test: Calcein AM assay for P-gp modulation; conditions: concentration dependent
# T1 construct: endogenous in cells; host or cells: DU145TXR prostate cancer cells
# T1 sequence (P08183 whole entry): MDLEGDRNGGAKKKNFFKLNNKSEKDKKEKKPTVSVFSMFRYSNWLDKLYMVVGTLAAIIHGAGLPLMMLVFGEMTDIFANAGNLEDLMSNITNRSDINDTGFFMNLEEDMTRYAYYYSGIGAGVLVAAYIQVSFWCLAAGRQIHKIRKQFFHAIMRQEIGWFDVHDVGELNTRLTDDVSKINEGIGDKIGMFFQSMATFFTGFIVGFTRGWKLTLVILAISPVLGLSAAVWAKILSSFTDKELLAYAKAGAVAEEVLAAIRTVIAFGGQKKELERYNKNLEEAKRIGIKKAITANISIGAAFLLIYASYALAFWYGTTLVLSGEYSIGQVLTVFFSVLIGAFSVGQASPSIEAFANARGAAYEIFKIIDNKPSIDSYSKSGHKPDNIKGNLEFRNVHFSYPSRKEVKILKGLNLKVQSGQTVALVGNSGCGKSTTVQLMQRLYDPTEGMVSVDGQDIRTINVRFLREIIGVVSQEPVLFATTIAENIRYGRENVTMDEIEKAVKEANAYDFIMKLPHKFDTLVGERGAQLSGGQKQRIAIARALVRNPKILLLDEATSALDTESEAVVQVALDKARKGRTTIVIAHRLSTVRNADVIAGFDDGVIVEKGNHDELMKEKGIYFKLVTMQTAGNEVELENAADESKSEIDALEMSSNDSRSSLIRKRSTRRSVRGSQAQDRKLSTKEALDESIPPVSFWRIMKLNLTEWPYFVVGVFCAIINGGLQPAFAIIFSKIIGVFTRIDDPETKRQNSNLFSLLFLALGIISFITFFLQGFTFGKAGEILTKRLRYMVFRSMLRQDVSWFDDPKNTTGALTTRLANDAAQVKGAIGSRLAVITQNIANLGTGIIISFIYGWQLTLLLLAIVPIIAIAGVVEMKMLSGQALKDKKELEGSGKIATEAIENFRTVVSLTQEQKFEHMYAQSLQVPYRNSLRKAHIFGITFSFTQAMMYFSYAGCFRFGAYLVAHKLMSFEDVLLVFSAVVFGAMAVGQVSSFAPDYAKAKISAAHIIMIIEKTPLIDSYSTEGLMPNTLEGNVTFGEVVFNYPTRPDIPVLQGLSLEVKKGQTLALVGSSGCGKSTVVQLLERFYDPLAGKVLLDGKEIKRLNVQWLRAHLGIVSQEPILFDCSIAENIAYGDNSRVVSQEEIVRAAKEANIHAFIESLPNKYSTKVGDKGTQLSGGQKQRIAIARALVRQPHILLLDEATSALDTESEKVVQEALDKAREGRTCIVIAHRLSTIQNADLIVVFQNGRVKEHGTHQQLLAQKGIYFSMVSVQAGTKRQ
# Procedure: Ability of P-gp to efflux Calcein AM is used to identify the molecules which interfere with P-gp transporter activity. About 10000 cells of DU145TXR prostate cancer cells were seeded in each well in 96 well plates and allowed to grow until confluency for 4-5 days. Then media was replaced with phenol red free RPMI media and cells were treated with indicated concentrations of TPH104s and 1 μg/mL of Calcein AM. Fluorescence measured after 60 minutes with excitation at 485/20 nm and at emission 535/20 nm using the BioTek Cytation 5 imaging multi-mode reader (Bio-Tek, Winooski, VT). DMSO (0.5% v/v) was used as the vehicle, and 15 μM of Pgp inhibitor SMU 45 was used as a positive control. (n=6 in each trial).
# BT-20 (TNBC cell line) = test: MTT cell viability assay, BT-20
# Procedure: as §1, §2
# [4] = test system: BT-20 and MDA-MB468 cells; test: Mitochondrial membrane potential assay (MitoTracker Red / Alexa Fluor 488 annexin V); conditions: 0.5, 1, and 2 μM
# Procedure: This assay is a direct measure of the structural integrity of mitochondria. Cells were seeded as indicated in the cell cycle assay and incubated for 24 h at 37° C. The next day, TPH104 (0.5, 1, 2 μM) or vehicle and incubated with the cells for 12 h. The cells were harvested, washed 2× with PBS, counted, and their concentrations were adjusted to 5×10^6 cells/well in the culture medium. Subsequently, 4 μl of the 10 μM solution of mitotracker red was added to each 1 ml aliquot of cells and incubated with the cells for 30 minutes at 37° C. The cells were washed 2× with PBS and re-suspended in the 100 μl of 1× annexin-binding buffer. The cells were stained with Alexa Fluor for 15 minutes and analyzed using flow cytometry as described in the manufacturer protocol (Thermofisher, USA).
smiles,measurement,setting,value
COc1ccc(O)c(/C=N/Nc2ncnc3scc(-c4ccc(C)cc4)c23)c1 [TPH104],migration of RAW264.7 cells,[1],significantly decreased
same,cellular shrinkage,BT-20 cells; 1 μM and 3 μM,did not induce cellular shrinkage
same,rupture of the cellular membrane,BT-20 cells; 1 μM and 3 μM,did induce rupture
same,nuclear condensation,"BT-20 cells; 1, 2, and 5 μM, 12 h",did not show nuclear condensation
same,IC50,[2],250 nM
same,efflux function of ABCB1,[3],blocking the efflux function
same,"percent cell survival, TPH104 + rapamycin vs TPH104 only",BT-20 (TNBC cell line); + 100 nM rapamycin,significant increase
same,"percent BT-20 survival, TPH104 + 3-methyladenine",BT-20 (TNBC cell line); + 0.5 mM,no significant change
same,IC50,"BT-20 (TNBC cell line); Homo sapiens, BT-20, MTT, 72 h, TNBC",290 nM
same,mitochondrial membrane potential,[4],did not significantly alter
same,"number of cells in the second quadrant (Q2), apoptotic cells",[4]; flow cytometry,did not significantly alter

# Source: US12390467B2, “Necroptosis inducers or autophagy inhibitors or a combination thereof” (The University of Toledo, priority 2018, dated 2025)
